Patent US20180072666A1, “ENOYL REDUCTASE INHIBITORS WITH ANTIBACTERIAL ACTIVITY” (Novalex Therapeutics, Inc., priority 2016, published 2018)
Converted amounts (≈) assume the structure as drawn. Read-outs that look alike come from different tables or passages of the source.

Experiments:
E. coli strain BW25113 = experiment: microbe, parasite or virus in culture; assay type: cell-based; settings: Escherichia coli, BW25113, read-out: MIC E. coli BW25113 WT
[1] = biological target: Acinetobacter baumannii FabI (AbFabI) (Acinetobacter baumannii, UniProt A0ABX6CD96); experiment: biochemical; assay type: biochemical; settings: read-out: Enzyme inhibition or IC50 with AbFabl
[2] = system: E. coli tolC- (strain BW25113, efflux pump mutant); experiment: microbe, parasite or virus in culture; assay type: cell-based; settings: Escherichia coli, BW25113, read-out: MIC E. coli TolC-
S. aureus strain RN4220 = experiment: microbe, parasite or virus in culture; assay type: cell-based; settings: Staphylococcus aureus, RN4220, read-out: MIC S. aureus RN4220 WT
[3] = system: F. tularensis (strain Utah); experiment: microbe, parasite or virus in culture; assay type: cell-based; settings: Francisella tularensis, read-out: MIC F. tularensis strain Utah
[4] = biological target: T1, Staphylococcus aureus FabI (SaFabI) (Staphylococcus aureus, UniProt Q6GI75); experiment: biochemical; assay type: biochemical
T1 sequence (Q6GI75 1-256): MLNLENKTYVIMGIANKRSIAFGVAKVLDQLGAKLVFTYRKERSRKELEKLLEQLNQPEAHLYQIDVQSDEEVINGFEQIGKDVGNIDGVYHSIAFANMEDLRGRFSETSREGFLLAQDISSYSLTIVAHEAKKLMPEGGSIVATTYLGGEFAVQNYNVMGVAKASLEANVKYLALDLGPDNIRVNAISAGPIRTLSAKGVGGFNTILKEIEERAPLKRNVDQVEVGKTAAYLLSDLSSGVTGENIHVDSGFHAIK

S. aureus strain Newman = experiment: MIC determination, S. aureus Newman; assay type: cell-based; settings: Staphylococcus aureus, read-out: MIC S. aureus Newman WT
[5] = 200 nM enzyme, 300 μM crotonyl-coenzymeA, 200 μM NADPH, pH 5.5, read-out: Enzyme inhibition or IC50 with SaFabl
[6] = TSB media, 37° C. overnight, first clear well

SMILES | MIC (E. coli strain BW25113) [µg/mL] | IC50 ([1]; pH 5.5) [µM] | MIC [2] [µg/mL] | MIC (S. aureus strain RN4220) [µg/mL] | MIC [3] [µg/mL] | IC50 [4, 5] [µM] | MIC (S. aureus strain Newman) [µg/mL] | IC50 [1] [µM] | IC50 [4] [µM] | MIC (S. aureus strain Newman; [6]) [µg/mL]
CC(=O)Nc1ccc(/C=C/C(=O)N2CCC(c3ccccc3)C2)cn1 (centres unmarked) | > 200 | 0.47 | 12.5 (≈ 37.3 µM) | > 200 | > 200 | 1.2 |  |  |  | 
COc1ccccc1C1CCN(C(=O)/C=C/c2ccc(NC(C)=O)nc2)C1 (centres unmarked) | > 200 | 0.42 | 0.75 (≈ 2.05 µM) | 12.5 to 25 (≈ 34.2 to 68.4 µM) | 12.5 (≈ 34.2 µM) | 3.5 | 12.5 to 25 (≈ 34.2 to 68.4 µM) |  |  | 
COc1ccccc1C1CCN(C(=O)Cc2ccccc2Cl)C1 (centres unmarked) |  |  | > 200 | 12.5 to 25 (≈ 37.9 to 75.8 µM) | 50 (≈ 152 µM) | 0.5 |  | 0.88 |  | 
CC(=O)Nc1ccc(/C=C/C(=O)N2CCC(c3ccccn3)C2)cn1 (centres unmarked) | > 100 |  | 100 (≈ 297 µM) | > 100 | > 100 | 28.4 |  | 5 |  | 
CC(=O)Nc1ccc(/C=C/C(=O)N2CCC(c3ccc4c(c3)OCO4)C2)cn1 (centres unmarked) | > 100 | 8.5 | > 100 | > 200 | > 200 | 1.1 |  |  |  | 
CC(=O)Nc1ccc(/C=C/C(=O)N2CCC(c3nccs3)C2)cn1 (centres unmarked) | > 100 |  | > 100 | > 100 | > 100 | 4.5 |  | 10 to 20 |  | 
O=C(Cc1ccccc1Cl)N1CCC(c2nccs2)C1 (centres unmarked) |  |  | > 100 | 50 (≈ 163 µM) | 200 (≈ 652 µM) | 6 |  | 14 |  | 
O=C(Cc1ccccc1Cl)N1CCC(c2ccccc2)C1 (centres unmarked) | > 200 | 3.1 |  | 12.5 (≈ 41.7 µM) | 25 (≈ 83.4 µM) | 10.7 | 12.5 to 25 (≈ 41.7 to 83.4 µM) |  |  | 
O=C(Cc1ccccc1Cl)N1CCC(c2ccc3c(c2)OCO3)C1 (centres unmarked) | > 200 |  |  | 12.5 (≈ 36.4 µM) | 25 (≈ 72.7 µM) | 2.5 | 6.25 to 12.5 (≈ 18.2 to 36.4 µM) | 3.7 |  | 
O=C(Cc1ccccc1Cl)N1CCC(c2ccccn2)C1 (centres unmarked) |  | 30.7 | > 200 | 100 (≈ 332 µM) | 200 (≈ 665 µM) | 18.4 |  |  |  | 
CC(=O)Nc1ccc(CC(=O)N2CCC(c3ccccc3)C2)cc1 (centres unmarked) |  |  | 200 (≈ 620 µM) | > 200 | 200 (≈ 620 µM) |  |  | > 100 |  | 
COc1ccccc1C1CCN(C(=O)Cc2ccc(NC(C)=O)cc2)C1 (centres unmarked) |  |  | > 200 | > 200 | > 200 |  |  | > 100 |  | 
CC(=O)Nc1ccc(CC(=O)N2CCC(c3ccc4c(c3)OCO4)C2)cc1 (centres unmarked) |  |  | > 200 | > 200 | > 200 |  |  | > 100 |  | 
COc1ccc(C2CCN(C(=O)Cc3ccc(NC(C)=O)cc3)C2)cc1 (centres unmarked) |  |  | > 200 | > 200 | > 200 |  |  | > 100 |  | 
COc1ccc(C2CCN(C(=O)/C=C/c3ccc(NC(C)=O)nc3)C2)cc1 (centres unmarked) |  |  | > 200 | > 200 | > 200 |  |  | > 100 | 3.55 | 
CC(=O)Nc1ccc(CC(=O)N2CCC(c3nccs3)C2)cc1 (centres unmarked) |  |  | > 200 | > 200 | > 200 |  |  | > 100 |  | 
COc1ccc(C2CCN(C(=O)Cc3ccccc3Cl)C2)cc1 (centres unmarked) |  |  | 100 (≈ 303 µM) | 100 (≈ 303 µM) | 12.5 (≈ 37.9 µM) | 12.5 |  |  |  | 
CC(C)S(=O)(=O)c1ccc(CC(=O)N2CCC(c3ccc4c(c3)OCO4)C2)cc1 (centres unmarked) |  |  | > 200 | > 200 | 100 (≈ 241 µM) |  |  | > 100 |  | 
O=C(Cc1c(F)cccc1Cl)N1CCC(c2ccc3c(c2)OCO3)C1 (centres unmarked) |  |  | > 200 | 25 (≈ 69.1 µM) | 25 (≈ 69.1 µM) | 1.8 |  | > 100 |  | 
O=C(Cc1ccccc1F)N1CCC(c2ccccc2)C1 (centres unmarked) |  |  | > 200 | 50 (≈ 176 µM) | 50 (≈ 176 µM) | 5 |  | 2.5 |  | 50 to 100 (≈ 176 to 353 µM)
O=C(Cc1c(F)cccc1F)N1CCC(c2ccccc2)C1 (centres unmarked) |  |  | > 200 | 50 (≈ 166 µM) | 50 (≈ 166 µM) | 1.9 |  | 6.9 |  | 50 to 100 (≈ 166 to 332 µM)
O=C(Cc1cccc(F)c1F)N1CCC(c2ccccc2)C1 (centres unmarked) |  |  | > 200 | 50 (≈ 166 µM) | 25 to 50 (≈ 83 to 166 µM) | 7.3 |  | 9.3 |  | 50 to 100 (≈ 166 to 332 µM)
COc1ccccc1C1CCN(C(=O)/C=C/c2ccc(NC(C)=O)cc2)C1 (centres unmarked) |  |  | > 200 | > 200 | > 200 |  |  |  |  | 
COc1ccccc1C1CCN(C(=O)Cc2ccccc2F)C1 (centres unmarked) |  |  | > 200 | 50 to 100 (≈ 160 to 319 µM) | 50 to 100 (≈ 160 to 319 µM) | 4.6 |  | 1.9 |  | 50 to 100 (≈ 160 to 319 µM)
COc1ccccc1C1CCN(C(=O)Cc2c(F)cccc2F)C1 (centres unmarked) |  |  | > 200 | 50 to 100 (≈ 151 to 302 µM) | 50 to 100 (≈ 151 to 302 µM) | 5.7 |  | 1.6 |  | 50 to 100 (≈ 151 to 302 µM)
COc1ccccc1C1CCN(C(=O)Cc2cccc(F)c2F)C1 (centres unmarked) |  |  | > 200 | 100 (≈ 302 µM) | 50 (≈ 151 µM) | 3 |  | 7.4 |  | 
O=C(Cc1ccccc1F)N1CCC(c2ccc3c(c2)OCO3)C1 (centres unmarked) |  | 32 | > 200 | > 200 | 25 to 50 (≈ 76.4 to 153 µM) | 2.7 |  |  |  | 
O=C(Cc1c(F)cccc1F)N1CCC(c2ccc3c(c2)OCO3)C1 (centres unmarked) |  | 54 | > 200 | > 200 | > 200 | 2.3 |  |  |  | 
O=C(Cc1cccc(F)c1F)N1CCC(c2ccc3c(c2)OCO3)C1 (centres unmarked) |  | 13.7 | > 200 | 100 (≈ 290 µM) | 25 (≈ 72.4 µM) | 5.5 |  |  |  | 
